The record followed here is US20230365576A1, “BRM Targeting Compounds And Associated Methods Of Use” (Prelude Therapeutics Incorporated, priority 2022, published 2023).

One assay concerns the target T1, SMARCA4 (Homo sapiens, UniProt P51532).
T1 construct: SMARCA4-HiBiT knock-in Hela monoclonal cell (CS3023226) were purchased from Promega; host or cells: HeLa (CRISPR HiBiT knock-in monoclonal line, heterozygous)
As to the kind of experiment: SMARCA4 HiBiT degradation assay in HeLa cells. The class given is cell-based. Particulars: 18 hours; for Dmax: HeLa. Put shortly:
(§1)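 Degradation measured as HiBiT luminescence (Nano-Glo lytic reagent) after 18 h compound exposure at 37° C. Cells were HeLa clones carrying heterozygous HiBiT tags on SMARCA2 or SMARCA4, 2500 per well; compounds at 3-fold serial dilution from 10 μM.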

A further assay addresses T2, SMARCA2 (Homo sapiens, UniProt P51531).
T2 construct: SMARCA2-HiBiT knock-in Hela monoclonal cell (CS302366); host or cells: HeLa (CRISPR HiBiT knock-in monoclonal line, heterozygous)
The experiment in a line: SMARCA2 HiBiT degradation assay in HeLa cells. The class given is cell-based. Conditions: 18 hours; for DC50: read-out: SMARCA2 IC50; for Dmax: HeLa. In a few lines:
as §1

Where only a bound is given, the exact number is not on record here.

T2 sequence (P51531 whole entry): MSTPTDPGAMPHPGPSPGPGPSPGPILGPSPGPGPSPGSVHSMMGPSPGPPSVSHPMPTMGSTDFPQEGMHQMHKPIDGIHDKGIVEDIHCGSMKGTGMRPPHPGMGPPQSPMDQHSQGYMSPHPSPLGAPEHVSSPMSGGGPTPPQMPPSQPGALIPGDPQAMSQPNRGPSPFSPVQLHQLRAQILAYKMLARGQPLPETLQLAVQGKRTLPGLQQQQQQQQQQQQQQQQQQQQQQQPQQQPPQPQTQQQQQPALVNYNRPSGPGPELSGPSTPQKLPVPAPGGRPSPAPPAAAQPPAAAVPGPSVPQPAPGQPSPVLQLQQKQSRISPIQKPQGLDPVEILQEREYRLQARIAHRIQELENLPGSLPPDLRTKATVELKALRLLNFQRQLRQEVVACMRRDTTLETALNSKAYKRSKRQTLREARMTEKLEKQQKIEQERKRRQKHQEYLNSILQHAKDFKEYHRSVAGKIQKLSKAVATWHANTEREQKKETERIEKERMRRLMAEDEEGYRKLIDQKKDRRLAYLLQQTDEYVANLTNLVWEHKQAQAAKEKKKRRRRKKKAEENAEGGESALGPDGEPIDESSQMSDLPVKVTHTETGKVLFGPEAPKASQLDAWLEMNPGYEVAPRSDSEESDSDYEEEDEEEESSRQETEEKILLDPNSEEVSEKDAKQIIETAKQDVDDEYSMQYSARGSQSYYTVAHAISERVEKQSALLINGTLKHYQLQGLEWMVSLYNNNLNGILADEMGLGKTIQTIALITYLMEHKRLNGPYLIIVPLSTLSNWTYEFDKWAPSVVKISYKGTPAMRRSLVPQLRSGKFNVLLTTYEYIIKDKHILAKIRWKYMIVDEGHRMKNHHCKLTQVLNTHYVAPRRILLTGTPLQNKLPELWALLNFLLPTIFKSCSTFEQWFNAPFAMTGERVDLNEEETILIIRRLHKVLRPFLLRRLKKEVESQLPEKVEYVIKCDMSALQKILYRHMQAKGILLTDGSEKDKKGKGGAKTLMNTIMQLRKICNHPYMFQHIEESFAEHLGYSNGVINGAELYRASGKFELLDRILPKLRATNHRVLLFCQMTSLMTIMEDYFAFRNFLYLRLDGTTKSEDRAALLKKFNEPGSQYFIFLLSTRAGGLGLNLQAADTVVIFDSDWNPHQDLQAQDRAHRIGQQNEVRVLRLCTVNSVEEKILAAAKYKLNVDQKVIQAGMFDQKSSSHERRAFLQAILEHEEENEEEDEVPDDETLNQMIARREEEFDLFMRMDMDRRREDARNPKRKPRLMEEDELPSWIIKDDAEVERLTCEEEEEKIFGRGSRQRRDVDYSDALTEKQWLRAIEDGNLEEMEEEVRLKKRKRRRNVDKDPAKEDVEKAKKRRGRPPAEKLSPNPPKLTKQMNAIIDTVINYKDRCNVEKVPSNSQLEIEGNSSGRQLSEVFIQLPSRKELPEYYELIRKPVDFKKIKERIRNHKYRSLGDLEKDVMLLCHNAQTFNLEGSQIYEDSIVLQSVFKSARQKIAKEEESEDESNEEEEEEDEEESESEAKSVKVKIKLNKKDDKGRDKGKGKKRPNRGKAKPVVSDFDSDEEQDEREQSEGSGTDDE
T1 sequence (P51532 whole entry): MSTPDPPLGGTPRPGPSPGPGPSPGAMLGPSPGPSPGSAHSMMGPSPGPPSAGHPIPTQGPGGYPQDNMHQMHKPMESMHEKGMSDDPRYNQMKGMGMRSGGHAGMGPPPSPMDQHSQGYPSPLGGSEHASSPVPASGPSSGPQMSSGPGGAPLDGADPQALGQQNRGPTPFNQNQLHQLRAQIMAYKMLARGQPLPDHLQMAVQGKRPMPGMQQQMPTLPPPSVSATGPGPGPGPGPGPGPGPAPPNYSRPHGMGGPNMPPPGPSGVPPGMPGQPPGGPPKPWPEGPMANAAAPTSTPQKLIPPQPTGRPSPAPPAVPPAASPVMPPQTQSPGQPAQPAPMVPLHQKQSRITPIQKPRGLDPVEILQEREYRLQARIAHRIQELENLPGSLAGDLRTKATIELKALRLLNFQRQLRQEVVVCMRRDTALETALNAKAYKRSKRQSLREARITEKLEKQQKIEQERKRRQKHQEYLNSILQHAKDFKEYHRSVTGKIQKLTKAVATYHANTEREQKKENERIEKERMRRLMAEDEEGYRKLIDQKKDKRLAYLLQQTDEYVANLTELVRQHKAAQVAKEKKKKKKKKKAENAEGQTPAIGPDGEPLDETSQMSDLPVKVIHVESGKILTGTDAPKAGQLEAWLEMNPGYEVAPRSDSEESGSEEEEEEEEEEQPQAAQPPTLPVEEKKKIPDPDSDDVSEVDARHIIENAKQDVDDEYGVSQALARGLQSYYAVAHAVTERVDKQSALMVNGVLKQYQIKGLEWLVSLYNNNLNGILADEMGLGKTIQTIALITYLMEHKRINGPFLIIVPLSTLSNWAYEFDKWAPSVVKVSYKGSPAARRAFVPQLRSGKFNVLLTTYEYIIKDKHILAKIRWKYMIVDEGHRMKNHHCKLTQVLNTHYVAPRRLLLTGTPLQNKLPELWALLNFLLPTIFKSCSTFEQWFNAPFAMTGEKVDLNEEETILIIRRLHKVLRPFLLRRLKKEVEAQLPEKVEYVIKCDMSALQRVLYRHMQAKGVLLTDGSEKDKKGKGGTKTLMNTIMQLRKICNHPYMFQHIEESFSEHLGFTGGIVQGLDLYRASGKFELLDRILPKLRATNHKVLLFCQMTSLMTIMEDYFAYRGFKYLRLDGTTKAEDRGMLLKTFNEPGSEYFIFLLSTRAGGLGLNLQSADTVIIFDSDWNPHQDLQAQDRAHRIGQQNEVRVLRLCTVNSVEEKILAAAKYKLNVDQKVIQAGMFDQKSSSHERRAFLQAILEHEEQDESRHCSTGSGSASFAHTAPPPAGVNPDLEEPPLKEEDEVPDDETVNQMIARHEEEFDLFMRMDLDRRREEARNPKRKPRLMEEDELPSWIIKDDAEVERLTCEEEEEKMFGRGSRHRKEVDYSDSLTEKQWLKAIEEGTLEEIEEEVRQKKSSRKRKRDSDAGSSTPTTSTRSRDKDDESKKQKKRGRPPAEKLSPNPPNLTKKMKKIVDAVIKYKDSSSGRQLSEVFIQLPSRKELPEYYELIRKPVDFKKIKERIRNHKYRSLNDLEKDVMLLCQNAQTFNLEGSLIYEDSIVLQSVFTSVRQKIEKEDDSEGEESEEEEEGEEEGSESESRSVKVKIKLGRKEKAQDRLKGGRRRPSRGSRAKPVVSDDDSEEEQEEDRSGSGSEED

For `O=C1CCC(N2Cc3ccc(N4CCN(CC5CCN(C(=O)N6CCN7c8cc(-c9cc(F)cc(F)c9O)nnc8NC[C@H]7C6)CC5)CC4)cc3C2=O)C(=O)N1` (stereo partly drawn) [Example 48, 3-(6-(4-((1-((S)-2-(3,5-difluoro-2-hydroxyphenyl)-6,6a,7,8,9,10-hexahydro-5H-pyrazino[1′,2′:4,5]pyrazino[2,3-c]pyridazine-8-carbonyl)piperidin-4-yl)methyl)piperazin-1-yl)-1-oxoisoindolin-2-yl)piperidine-2,6-dione], the DC50 on SMARCA4 and at SMARCA2 was less than 100 nM in each case. Also, the maximal degradation (Dmax) was less than 50% on SMARCA4 and more than 75% at SMARCA2.
For `O=C1CCC(N2Cc3ccc(N4CCOC(CN5CC6C(C5)C6CN5CCN6c7cc(-c8cc(F)cc(F)c8O)nnc7NCC6C5)C4)cc3C2=O)C(=O)N1` [Example 49, 3-(6-(2-(((1R,5S,6s)-6-(((S)-2-(3,5-difluoro-2-hydroxyphenyl)-5,6,6a,7,9,10-hexahydro-8H-pyrazino[1′,2′:4,5]pyrazino[2,3-c]pyridazin-8-yl)methyl)-3-azabicyclo[3.1.0]hexan-3-yl)methyl)morpholino)-1-oxoisoindolin-2-yl)piperidine-2,6-dione], the DC50 at SMARCA4 and at SMARCA2 was less than 100 nM throughout. For the same molecule, the Dmax on SMARCA4 and at SMARCA2 was more than 75% in each case.
On SMARCA4, `C[C@H]1CN2c3cc(-c4cc(F)cc(F)c4O)nnc3NC[C@H]2CN1C[C@H]1[C@@H]2CN(CC3CN(c4ccc5c(c4)C(=O)N(C4CCC(=O)NC4=O)C5)CCO3)C[C@@H]21` (stereo partly drawn) [Example 50, 3-(6-(2-(((1R,5S,6r)-6-(((6aS,9S)-2-(3,5-difluoro-2-hydroxyphenyl)-9-methyl-5,6,6a,7,9,10-hexahydro-8H-pyrazino[1′,2′:4,5]pyrazino[2,3-c]pyridazin-8-yl)methyl)-3-azabicyclo[3.1.0]hexan-3-yl)methyl)morpholino)-1-oxoisoindolin-2-yl)piperidine-2,6-dione] displayed a DC50 of less than 100 nM and a maximal degradation (Dmax) of 50 to 75%. Besides, at SMARCA2, the DC50 was less than 100 nM and the Dmax is more than 75%.
For `O=C1CCC(N2Cc3cc(N4CCO[C@@H](CN5CC[C@H](CN6CCN7c8cc(-c9cc(F)cc(F)c9O)nnc8NC[C@H]7C6)[C@@H](F)C5)C4)ccc3C2=O)C(=O)N1` (stereo partly drawn) [Example 51, 3-(5-((S)-2-(((3R,4R)-4-(((S)-2-(3,5-difluoro-2-hydroxyphenyl)-5,6,6a,7,9,10-hexahydro-8H-pyrazino[1′,2′:4,5]pyrazino[2,3-c]pyridazin-8-yl)methyl)-3-fluoropiperidin-1-yl)methyl)morpholino)-1-oxoisoindolin-2-yl)piperidine-2,6-dione], the values for the DC50 on SMARCA4 and on SMARCA2 were more than 1000 nM and less than 100 nM, respectively. Further, the Dmax on SMARCA4 and at SMARCA2 was less than 50% in each case.
On SMARCA4, `O=C1CCC(N2Cc3ccc(N4CC[C@@H](CN5CC[C@@H](CN6CCN7c8cc(-c9cc(F)cc(F)c9O)nnc8NC[C@H]7C6)C5)C4)cc3C2=O)C(=O)N1` (stereo partly drawn) [Example 52, 3-(6-((S)-3-(((R)-3-(((S)-2-(3,5-difluoro-2-hydroxyphenyl)-5,6,6a,7,9,10-hexahydro-8H-pyrazino[1′,2′:4,5]pyrazino[2,3-c]pyridazin-8-yl)methyl)pyrrolidin-1-yl)methyl)pyrrolidin-1-yl)-1-oxoisoindolin-2-yl)piperidine-2,6-dione] had a DC50 of less than 100 nM and a Dmax of 50 to 75%. Further, on SMARCA2, the DC50 is less than 100 nM and the Dmax is more than 75%.
As for `O=C1CCC(N2Cc3cc(N4CC[C@@H](CN5CCC(CN6CCN7c8cc(-c9cc(F)cc(F)c9O)nnc8NC[C@H]7C6)CC5)C4)ccc3C2=O)C(=O)N1` (stereo partly drawn) [Example 53, 3-(5-((S)-3-((4-(((S)-2-(3,5-difluoro-2-hydroxyphenyl)-5,6,6a,7,9,10-hexahydro-8H-pyrazino[1′,2′:4,5]pyrazino[2,3-c]pyridazin-8-yl)methyl)piperidin-1-yl)methyl)pyrrolidin-1-yl)-1-oxoisoindolin-2-yl)piperidine-2,6-dione], at SMARCA4, the DC50 was less than 100 nM and the greatest degradation seen (Dmax) was in the range of 50 to 75%. On SMARCA2, the DC50 was less than 100 nM and the Dmax was more than 75%.
On SMARCA4, `O=C1CCC(N2Cc3ccc(N4CCN(C[C@H]5CC[C@H](CN6CCN7c8cc(-c9cc(F)cc(F)c9O)nnc8NC[C@H]7C6)CC5)CC4)cc3C2=O)C(=O)N1` (some centres unmarked) [Example 54] yielded a DC50 of less than 100 nM and a maximal degradation (Dmax) of more than 75%. Besides, at SMARCA2, the DC50 is less than 100 nM and the maximal degradation (Dmax) was more than 75%.
On SMARCA4, `O=C1CCC(N2Cc3ccc(N4CCC(CN5CCC(F)(C(=O)N6CCN7c8cc(-c9cc(F)cc(F)c9O)nnc8NC[C@H]7C6)CC5)CC4)cc3C2=O)C(=O)N1` (stereo partly drawn) [Example 55, 3-(6-(4-((4-((S)-2-(3,5-difluoro-2-hydroxyphenyl)-6,6a,7,8,9,10-hexahydro-5H-pyrazino[1′,2′:4,5]pyrazino[2,3-c]pyridazine-8-carbonyl)-4-fluoropiperidin-1-yl)methyl)piperidin-1-yl)-1-oxoisoindolin-2-yl)piperidine-2,6-dione] had a DC50 of less than 100 nM and a Dmax of less than 50%. On SMARCA2, the DC50 was less than 100 nM and the greatest degradation seen (Dmax) was in the range of 50 to 75%.
Consider `O=C1CCC(N2Cc3ccc(N4CCN(C[C@H]5CC[C@@H](CN6CCN7c8cc(-c9cc(F)cc(F)c9O)nnc8NC[C@H]7C6)CC5)CC4)cc3C2=O)C(=O)N1` (stereo partly drawn) [Example 56, 3-(6-(4-(((1R,4s)-4-(((S)-2-(3,5-difluoro-2-hydroxyphenyl)-5,6,6a,7,9,10-hexahydro-8H-pyrazino[1′,2′:4,5]pyrazino[2,3-c]pyridazin-8-yl)methyl)cyclohexyl)methyl)piperazin-1-yl)-1-oxoisoindolin-2-yl)piperidine-2,6-dione], for which, at SMARCA4, the DC50 was less than 100 nM and the Dmax was more than 75%. Also, at SMARCA2, the DC50 was less than 100 nM and the Dmax was more than 75%.
On SMARCA4, `C[C@@H]1CN(CC2CCN(c3ccc4c(c3)C(=O)N(C3CCC(=O)NC3=O)C4)CC2)[C@@H](C)CN1C(=O)N1CCN2c3cc(-c4cccc(F)c4O)nnc3NCC2(C)C1` (stereo partly drawn) [Example 57, 3-(6-(4-(((2S,5R)-4-(2-(3-fluoro-2-hydroxyphenyl)-6a-methyl-6,6a,7,8,9,10-hexahydro-5H-pyrazino[1′,2′:4,5]pyrazino[2,3-c]pyridazine-8-carbonyl)-2,5-dimethyl-piperazin-1-yl)methyl)piperidin-1-yl)-1-oxoisoindolin-2-yl)piperidine-2,6-dione] came in with a DC50 of less than 100 nM and a maximal degradation (Dmax) of less than 50%. For the same molecule, at SMARCA2, the DC50 is less than 100 nM and the greatest degradation seen (Dmax) is more than 75%.
At SMARCA4, `O=C1CCC(N2Cc3ccc(N4CCN(C[C@H]5CC[C@H](CN6CCN7c8cc(-c9cccc(F)c9O)nnc8NC[C@H]7C6)CC5)CC4)cc3C2=O)C(=O)N1` (stereo partly drawn) [Example 58, 3-(6-(4-(((1S,4r)-4-(((S)-2-(3-fluoro-2-hydroxyphenyl)-5,6,6a,7,9,10-hexahydro-8H-pyrazino[1′,2′:4,5]pyrazino[2,3-c]pyridazin-8-yl)methyl)cyclohexyl)methyl)piperazin-1-yl)-1-oxoisoindolin-2-yl)piperidine-2,6-dione] yielded a DC50 of less than 100 nM and a maximal degradation (Dmax) of 50 to 75%. Also, at SMARCA2, the DC50 was less than 100 nM and the Dmax was more than 75%.
On SMARCA4, `CC1(C)CN(CC2CCN(c3ccc4c(c3)C(=O)N([C@H]3CCC(=O)NC3=O)C4)CC2)CCN1C(=O)N1CCN2c3cc(-c4cccc(F)c4O)nnc3NC[C@]2(C(F)F)C1` [Example 65, (S)-3-(6-(4-((4-((R)-6a-(difluoromethyl)-2-(3-fluoro-2-hydroxyphenyl)-6,6a,7,8,9,10-hexahydro-5H-pyrazino[1′,2′:4,5]pyrazino[2,3-c]pyridazine-8-carbonyl)-3,3-dimethylpiperazin-1-yl)methyl)piperidin-1-yl)-1-oxoisoindolin-2-yl)piperidine-2,6-dione] yielded a DC50 of less than 100 nM and a Dmax of 50 to 75%. On SMARCA2, the DC50 was less than 100 nM and the Dmax is more than 75%.
At SMARCA4, `C[C@H]1CN(CC2CCN(c3ccc4c(c3)C(=O)N([C@H]3CCC(=O)NC3=O)C4)CC2)C[C@H](C)N1C(=O)N1CCN2c3cc(-c4cccc(F)c4O)nnc3NC[C@]2(C(F)F)C1` [Example 66, (S)-3-(6-(4-(((3S,5S)-4-((R)-6a-(difluoromethyl)-2-(3-fluoro-2-hydroxyphenyl)-6,6a,7,8,9,10-hexahydro-5H-pyrazino[1′,2′:4,5]pyrazino[2,3-c]pyridazine-8-carbonyl)-3,5-dimethylpiperazin-1-yl)methyl)piperidin-1-yl)-1-oxoisoindolin-2-yl)piperidine-2,6-dione] returned a DC50 of less than 100 nM and a Dmax of more than 75%. Also, at SMARCA2, the DC50 was less than 100 nM and the greatest degradation seen (Dmax) is more than 75%.
In the case of `C[C@@H]1CN(CC2CCN(c3ccc4c(c3)C(=O)N([C@H]3CCC(=O)NC3=O)C4)CC2)C[C@@H](C)N1C(=O)N1CCN2c3cc(-c4cccc(F)c4O)nnc3NC[C@]2(C(F)F)C1` [Example 67, (S)-3-(6-(4-(((3R,5R)-4-((R)-6a-(difluoromethyl)-2-(3-fluoro-2-hydroxyphenyl)-6,6a,7,8,9,10-hexahydro-5H-pyrazino[1′,2′:4,5]pyrazino[2,3-c]pyridazine-8-carbonyl)-3,5-dimethylpiperazin-1-yl)methyl)piperidin-1-yl)-1-oxoisoindolin-2-yl)piperidine-2,6-dione], the DC50 on SMARCA4 and at SMARCA2 was less than 100 nM in each case. Also, the Dmax on SMARCA4 and at SMARCA2 was 50 to 75% throughout.
